Assay results as given in patent US9340590B2 (priority 2011, dated 2016).
Read-outs that look alike come from different tables or passages of the source. Positions of bridges follow the written chain, without caps; N, C: chain ends. Residues, ends and D or L forms follow the SMILES beside them.

Assays:
Test in all cases: cell-based
hNav1.5 = hNav1.5 (Homo sapiens, UniProt Q14524)
hNav1.3 = hNav1.3 (Homo sapiens, UniProt Q9NY46); details: IonWorks Quattro, Use; read-out: IWQ Use Nav1.3
hNav1.7 = hNav1.7 (Homo sapiens, UniProt Q15858); assay type: cell-based; details: IonWorks Quattro, Use; read-out: IWQ Use Nav1.7
[1] = IonWorks Quattro, Use, read-out: IWQ Use Nav1.5

hNav1.7, sequence (Q15858 whole entry, looked up): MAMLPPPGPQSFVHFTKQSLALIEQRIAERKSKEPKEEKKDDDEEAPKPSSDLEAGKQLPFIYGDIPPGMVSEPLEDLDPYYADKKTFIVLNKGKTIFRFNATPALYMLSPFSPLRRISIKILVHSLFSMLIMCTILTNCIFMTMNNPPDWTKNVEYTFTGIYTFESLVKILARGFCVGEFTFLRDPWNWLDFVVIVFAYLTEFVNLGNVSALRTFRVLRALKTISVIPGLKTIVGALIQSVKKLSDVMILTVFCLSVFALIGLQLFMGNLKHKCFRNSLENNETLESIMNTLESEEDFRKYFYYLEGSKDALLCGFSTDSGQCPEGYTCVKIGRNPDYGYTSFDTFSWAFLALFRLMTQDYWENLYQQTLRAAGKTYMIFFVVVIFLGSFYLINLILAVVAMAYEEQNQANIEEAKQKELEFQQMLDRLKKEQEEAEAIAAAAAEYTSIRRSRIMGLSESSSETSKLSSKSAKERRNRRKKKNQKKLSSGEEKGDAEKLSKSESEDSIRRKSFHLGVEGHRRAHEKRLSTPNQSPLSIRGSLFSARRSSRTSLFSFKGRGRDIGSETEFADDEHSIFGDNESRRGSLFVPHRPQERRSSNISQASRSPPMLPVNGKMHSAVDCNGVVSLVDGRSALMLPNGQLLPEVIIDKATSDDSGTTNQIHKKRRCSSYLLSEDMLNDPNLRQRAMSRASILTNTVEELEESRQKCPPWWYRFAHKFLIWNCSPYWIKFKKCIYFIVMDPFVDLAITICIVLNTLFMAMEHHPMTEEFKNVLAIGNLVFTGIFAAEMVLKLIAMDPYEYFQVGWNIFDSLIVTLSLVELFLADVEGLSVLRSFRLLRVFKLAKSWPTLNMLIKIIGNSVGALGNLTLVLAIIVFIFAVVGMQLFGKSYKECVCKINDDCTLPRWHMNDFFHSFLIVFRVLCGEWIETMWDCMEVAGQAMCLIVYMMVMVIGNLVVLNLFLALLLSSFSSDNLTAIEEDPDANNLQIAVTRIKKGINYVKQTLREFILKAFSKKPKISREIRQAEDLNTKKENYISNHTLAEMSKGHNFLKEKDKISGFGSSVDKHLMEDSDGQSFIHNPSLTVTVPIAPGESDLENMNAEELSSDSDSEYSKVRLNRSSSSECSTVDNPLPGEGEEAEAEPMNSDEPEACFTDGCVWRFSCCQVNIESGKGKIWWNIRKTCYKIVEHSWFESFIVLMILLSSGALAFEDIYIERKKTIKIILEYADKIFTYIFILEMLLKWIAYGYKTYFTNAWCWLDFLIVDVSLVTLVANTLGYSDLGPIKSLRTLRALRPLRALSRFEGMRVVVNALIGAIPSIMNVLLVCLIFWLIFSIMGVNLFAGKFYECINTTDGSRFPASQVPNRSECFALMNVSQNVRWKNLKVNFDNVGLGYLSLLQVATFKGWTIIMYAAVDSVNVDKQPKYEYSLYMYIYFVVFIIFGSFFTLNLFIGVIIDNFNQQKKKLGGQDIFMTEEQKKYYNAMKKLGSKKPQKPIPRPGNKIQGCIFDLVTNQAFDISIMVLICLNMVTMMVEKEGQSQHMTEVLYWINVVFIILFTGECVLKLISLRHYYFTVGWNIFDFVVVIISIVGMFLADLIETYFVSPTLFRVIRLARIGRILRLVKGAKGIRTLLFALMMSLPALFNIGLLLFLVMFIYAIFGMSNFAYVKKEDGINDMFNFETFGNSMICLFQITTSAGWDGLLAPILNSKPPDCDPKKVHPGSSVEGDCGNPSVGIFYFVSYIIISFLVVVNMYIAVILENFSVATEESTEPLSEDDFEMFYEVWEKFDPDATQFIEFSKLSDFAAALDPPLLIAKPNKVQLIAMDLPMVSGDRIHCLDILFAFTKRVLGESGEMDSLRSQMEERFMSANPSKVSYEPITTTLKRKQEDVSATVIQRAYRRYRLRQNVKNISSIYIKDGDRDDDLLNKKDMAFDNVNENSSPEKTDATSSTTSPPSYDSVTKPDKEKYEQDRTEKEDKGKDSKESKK
hNav1.3, sequence (Q9NY46 whole entry, looked up): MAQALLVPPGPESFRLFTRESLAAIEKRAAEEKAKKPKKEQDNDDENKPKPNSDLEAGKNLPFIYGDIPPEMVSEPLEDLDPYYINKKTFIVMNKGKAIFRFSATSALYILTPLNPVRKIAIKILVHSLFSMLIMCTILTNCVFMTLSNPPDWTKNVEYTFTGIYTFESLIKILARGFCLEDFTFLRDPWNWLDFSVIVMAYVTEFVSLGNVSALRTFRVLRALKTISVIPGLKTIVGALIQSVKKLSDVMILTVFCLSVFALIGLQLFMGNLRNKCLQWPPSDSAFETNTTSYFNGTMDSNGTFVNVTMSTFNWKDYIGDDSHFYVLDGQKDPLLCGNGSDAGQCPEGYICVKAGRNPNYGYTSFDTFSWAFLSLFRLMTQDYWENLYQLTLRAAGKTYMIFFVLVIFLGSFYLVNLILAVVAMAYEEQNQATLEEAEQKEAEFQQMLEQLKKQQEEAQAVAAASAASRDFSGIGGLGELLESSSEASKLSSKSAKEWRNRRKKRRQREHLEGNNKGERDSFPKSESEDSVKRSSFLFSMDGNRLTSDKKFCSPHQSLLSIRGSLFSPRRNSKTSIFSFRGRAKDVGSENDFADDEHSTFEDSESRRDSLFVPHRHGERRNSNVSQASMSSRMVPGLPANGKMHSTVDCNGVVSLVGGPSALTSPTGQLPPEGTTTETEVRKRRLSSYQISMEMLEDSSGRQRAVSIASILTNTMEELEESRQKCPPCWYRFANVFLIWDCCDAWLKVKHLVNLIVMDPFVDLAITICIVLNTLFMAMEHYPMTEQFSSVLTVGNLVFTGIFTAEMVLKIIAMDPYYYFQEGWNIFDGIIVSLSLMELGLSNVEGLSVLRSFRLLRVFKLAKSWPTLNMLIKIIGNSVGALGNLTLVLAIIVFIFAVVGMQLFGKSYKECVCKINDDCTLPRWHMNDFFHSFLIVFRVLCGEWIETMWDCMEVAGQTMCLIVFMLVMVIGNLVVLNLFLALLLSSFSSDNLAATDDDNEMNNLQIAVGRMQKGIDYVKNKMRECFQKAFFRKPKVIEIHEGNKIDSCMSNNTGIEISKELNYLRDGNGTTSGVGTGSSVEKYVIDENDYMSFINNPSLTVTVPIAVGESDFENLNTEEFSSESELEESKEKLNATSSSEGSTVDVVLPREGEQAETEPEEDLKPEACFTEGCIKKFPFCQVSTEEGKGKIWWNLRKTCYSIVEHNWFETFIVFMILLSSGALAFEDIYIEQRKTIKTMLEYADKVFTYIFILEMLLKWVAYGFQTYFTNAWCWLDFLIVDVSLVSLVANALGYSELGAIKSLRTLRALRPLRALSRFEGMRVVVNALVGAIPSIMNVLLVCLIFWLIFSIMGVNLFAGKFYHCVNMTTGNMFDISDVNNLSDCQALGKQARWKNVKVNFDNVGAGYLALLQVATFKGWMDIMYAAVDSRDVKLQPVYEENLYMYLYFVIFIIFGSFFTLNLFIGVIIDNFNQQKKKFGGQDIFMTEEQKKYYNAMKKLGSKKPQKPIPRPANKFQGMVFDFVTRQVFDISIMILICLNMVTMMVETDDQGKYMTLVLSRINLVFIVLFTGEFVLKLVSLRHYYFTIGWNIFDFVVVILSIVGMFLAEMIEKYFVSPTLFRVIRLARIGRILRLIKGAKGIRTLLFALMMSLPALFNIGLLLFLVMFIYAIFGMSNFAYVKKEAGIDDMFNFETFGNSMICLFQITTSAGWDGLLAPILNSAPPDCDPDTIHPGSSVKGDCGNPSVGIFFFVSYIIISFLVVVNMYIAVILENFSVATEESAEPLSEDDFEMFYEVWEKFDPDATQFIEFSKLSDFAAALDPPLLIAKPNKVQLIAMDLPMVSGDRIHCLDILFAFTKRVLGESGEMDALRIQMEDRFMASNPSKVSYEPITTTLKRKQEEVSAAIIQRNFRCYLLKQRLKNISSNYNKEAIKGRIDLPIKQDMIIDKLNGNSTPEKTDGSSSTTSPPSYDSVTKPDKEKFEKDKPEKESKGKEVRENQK

SMILES | IC50 (hNav1.5; IWQ Use Nav1.5 (μM)) | IC50 (hNav1.3) | IC50 (hNav1.7) | IC50 (hNav1.5; [1])
CC[C@H](C)[C@@H]1NC(=O)[C@@H]2CSSC[C@@H]3NC(=O)[C@H](Cc4ccccc4)NC(=O)[C@H](CC(C)C)NC(=O)[C@H](CC(N)=O)NC(=O)[C@@H]4CCCN4C(=O)[C@H](CCCNC(=N)N)NC(=O)[C@H](CSSC[C@H](NC(=O)[C@@H](N)CC(=O)O)C(=O)N[C@@H](CC(C)C)C(=O)NCC(=O)N[C@@H](Cc4ccccc4)C(=O)N[C@@H](CCSC)C(=O)N[C@@H](CCCNC(=N)N)C(=O)N[C@@H](CCCCN)C(=O)N2)NC(=O)[C@H](CSSC[C@@H](C(=O)N[C@@H](CCCCN)C(=O)N[C@@H](Cc2ccc(O)cc2)C(=O)N[C@H](C(=O)N[C@@H](Cc2ccccc2)C(N)=O)C(C)C)NC(=O)[C@H](Cc2c[nH]c4ccccc24)NC(=O)[C@H](CCCCN)NC(=O)[C@H](Cc2c[nH]cn2)NC(=O)[C@H]([C@@H](C)O)NC(=O)[C@H](CCCNC(=N)N)NC(=O)[C@H](CO)NC3=O)NC(=O)[C@H](CCCCN)NC(=O)[C@H](CC(=O)O)NC(=O)[C@H](CC(N)=O)NC(=O)[C@H](CC(=O)O)NC(=O)[C@@H]2CCCN2C1=O [compound 319] (H-DCLGFMRKCIPDNDKCCRPNLFCSRTHKWCKYVF-NH2; disulfide 2-17, 9-23, 16-30) | > 5 µM | 1.02 µM | 0.7 µM | –
CC[C@H](C)[C@@H]1NC(=O)[C@@H]2CSSC[C@@H]3NC(=O)[C@@H]4CCCN4C(=O)[C@H](CC(C)C)NC(=O)[C@H](CC(N)=O)NC(=O)[C@@H]4CCCN4C(=O)[C@H](CCCNC(=N)N)NC(=O)[C@H](CSSC[C@H](NC(=O)[C@@H](N)CC(=O)O)C(=O)N[C@@H](CC(C)C)C(=O)NCC(=O)N[C@@H](Cc4ccccc4)C(=O)N[C@@H](CCSC)C(=O)N[C@@H](CCCNC(=N)N)C(=O)N[C@@H](CCCCN)C(=O)N2)NC(=O)[C@H](CSSC[C@@H](C(=O)N[C@@H](CCCCN)C(=O)N[C@@H](Cc2ccc(O)cc2)C(=O)N[C@H](C(=O)N[C@@H](Cc2ccccc2)C(N)=O)C(C)C)NC(=O)[C@H](Cc2c[nH]c4ccccc24)NC(=O)[C@H](CCCCN)NC(=O)[C@H](Cc2c[nH]cn2)NC(=O)[C@H]([C@@H](C)O)NC(=O)[C@H](CCCNC(=N)N)NC(=O)[C@H](CO)NC3=O)NC(=O)[C@H](CCCCN)NC(=O)[C@H](CC(=O)O)NC(=O)[C@H](CC(N)=O)NC(=O)[C@H](CC(=O)O)NC(=O)[C@@H]2CCCN2C1=O [compound 320] (H-DCLGFMRKCIPDNDKCCRPNLPCSRTHKWCKYVF-NH2; disulfide 2-17, 9-23, 16-30) | – | > 5 µM | > 5 µM | > 5 µM
CC[C@H](C)[C@@H]1NC(=O)[C@H](CC(C)C)NC(=O)[C@H](CC(N)=O)NC(=O)[C@@H]2CCCN2C(=O)[C@H](CCCNC(=N)N)NC(=O)[C@@H]2CSSC[C@H](NC(=O)[C@@H](N)CC(=O)O)C(=O)N[C@@H](CC(C)C)C(=O)NCC(=O)N[C@@H](Cc3ccccc3)C(=O)N[C@@H](CCSC)C(=O)N[C@@H](CCCNC(=N)N)C(=O)N[C@@H](CCCCN)C(=O)N[C@H]3CSSC[C@H](NC1=O)C(=O)N[C@@H](CO)C(=O)N[C@@H](CCCNC(=N)N)C(=O)N[C@@H]([C@@H](C)O)C(=O)N[C@@H](Cc1c[nH]cn1)C(=O)N[C@@H](CCCCN)C(=O)N[C@@H](Cc1c[nH]c4ccccc14)C(=O)N[C@H](C(=O)N[C@@H](CCCCN)C(=O)N[C@@H](Cc1ccc(O)cc1)C(=O)N[C@H](C(=O)N[C@@H](Cc1ccccc1)C(N)=O)C(C)C)CSSC[C@H](NC(=O)[C@H](CCCCN)NC(=O)[C@H](CC(=O)O)NC(=O)[C@H](CC(N)=O)NC(=O)[C@H](CC(=O)O)NC(=O)[C@@H]1CCCN1C(=O)[C@H]([C@@H](C)CC)NC3=O)C(=O)N2 [compound 321] (H-DCLGFMRKCIPDNDKCCRPNLICSRTHKWCKYVF-NH2; disulfide 2-17, 9-23, 16-30) | – | 0.07 µM | 0.08 µM | 11.5 µM
CC[C@H](C)[C@@H]1NC(=O)[C@@H]2CSSC[C@@H]3NC(=O)[C@H](CC(C)C)NC(=O)[C@H](CC(C)C)NC(=O)[C@H](CC(N)=O)NC(=O)[C@@H]4CCCN4C(=O)[C@H](CCCNC(=N)N)NC(=O)[C@H](CSSC[C@H](NC(=O)[C@@H](N)CC(=O)O)C(=O)N[C@@H](CC(C)C)C(=O)NCC(=O)N[C@@H](Cc4ccccc4)C(=O)N[C@@H](CCSC)C(=O)N[C@@H](CCCNC(=N)N)C(=O)N[C@@H](CCCCN)C(=O)N2)NC(=O)[C@H](CSSC[C@@H](C(=O)N[C@@H](CCCCN)C(=O)N[C@@H](Cc2ccc(O)cc2)C(=O)N[C@H](C(=O)N[C@@H](Cc2ccccc2)C(N)=O)C(C)C)NC(=O)[C@H](Cc2c[nH]c4ccccc24)NC(=O)[C@H](CCCCN)NC(=O)[C@H](Cc2c[nH]cn2)NC(=O)[C@H]([C@@H](C)O)NC(=O)[C@H](CCCNC(=N)N)NC(=O)[C@H](CO)NC3=O)NC(=O)[C@H](CCCCN)NC(=O)[C@H](CC(=O)O)NC(=O)[C@H](CC(N)=O)NC(=O)[C@H](CC(=O)O)NC(=O)[C@@H]2CCCN2C1=O [compound 322] (H-DCLGFMRKCIPDNDKCCRPNLLCSRTHKWCKYVF-NH2; disulfide 2-17, 9-23, 16-30) | – | 0.07 µM | 0.09 µM | 9.58 µM
CC[C@H](C)[C@@H]1NC(=O)[C@@H]2CSSC[C@@H]3NC(=O)[C@H](CO)NC(=O)[C@H](CC(C)C)NC(=O)[C@H](CC(N)=O)NC(=O)[C@@H]4CCCN4C(=O)[C@H](CCCNC(=N)N)NC(=O)[C@H](CSSC[C@H](NC(=O)[C@@H](N)CC(=O)O)C(=O)N[C@@H](CC(C)C)C(=O)NCC(=O)N[C@@H](Cc4ccccc4)C(=O)N[C@@H](CCSC)C(=O)N[C@@H](CCCNC(=N)N)C(=O)N[C@@H](CCCCN)C(=O)N2)NC(=O)[C@H](CSSC[C@@H](C(=O)N[C@@H](CCCCN)C(=O)N[C@@H](Cc2ccc(O)cc2)C(=O)N[C@H](C(=O)N[C@@H](Cc2ccccc2)C(N)=O)C(C)C)NC(=O)[C@H](Cc2c[nH]c4ccccc24)NC(=O)[C@H](CCCCN)NC(=O)[C@H](Cc2c[nH]cn2)NC(=O)[C@H]([C@@H](C)O)NC(=O)[C@H](CCCNC(=N)N)NC(=O)[C@H](CO)NC3=O)NC(=O)[C@H](CCCCN)NC(=O)[C@H](CC(=O)O)NC(=O)[C@H](CC(N)=O)NC(=O)[C@H](CC(=O)O)NC(=O)[C@@H]2CCCN2C1=O [compound 323] (H-DCLGFMRKCIPDNDKCCRPNLSCSRTHKWCKYVF-NH2; disulfide 2-17, 9-23, 16-30) | – | 0.09 µM | 0.1 µM | 4.42 µM
CC[C@H](C)[C@@H]1NC(=O)[C@@H]2CSSC[C@@H]3NC(=O)CNC(=O)[C@H](CC(C)C)NC(=O)[C@H](CC(N)=O)NC(=O)[C@@H]4CCCN4C(=O)[C@H](CCCNC(=N)N)NC(=O)[C@H](CSSC[C@H](NC(=O)[C@@H](N)CC(=O)O)C(=O)N[C@@H](CC(C)C)C(=O)NCC(=O)N[C@@H](Cc4ccccc4)C(=O)N[C@@H](CCSC)C(=O)N[C@@H](CCCNC(=N)N)C(=O)N[C@@H](CCCCN)C(=O)N2)NC(=O)[C@H](CSSC[C@@H](C(=O)N[C@@H](CCCCN)C(=O)N[C@@H](Cc2ccc(O)cc2)C(=O)N[C@H](C(=O)N[C@@H](Cc2ccccc2)C(N)=O)C(C)C)NC(=O)[C@H](Cc2c[nH]c4ccccc24)NC(=O)[C@H](CCCCN)NC(=O)[C@H](Cc2c[nH]cn2)NC(=O)[C@H]([C@@H](C)O)NC(=O)[C@H](CCCNC(=N)N)NC(=O)[C@H](CO)NC3=O)NC(=O)[C@H](CCCCN)NC(=O)[C@H](CC(=O)O)NC(=O)[C@H](CC(N)=O)NC(=O)[C@H](CC(=O)O)NC(=O)[C@@H]2CCCN2C1=O [compound 324] (H-DCLGFMRKCIPDNDKCCRPNLGCSRTHKWCKYVF-NH2; disulfide 2-17, 9-23, 16-30) | – | 0.1 µM | 0.14 µM | 10.9 µM
CC[C@H](C)[C@@H]1NC(=O)[C@@H]2CSSC[C@@H]3NC(=O)[C@H](CC(N)=O)NC(=O)[C@H](CC(C)C)NC(=O)[C@H](CC(N)=O)NC(=O)[C@@H]4CCCN4C(=O)[C@H](CCCNC(=N)N)NC(=O)[C@H](CSSC[C@H](NC(=O)[C@@H](N)CC(=O)O)C(=O)N[C@@H](CC(C)C)C(=O)NCC(=O)N[C@@H](Cc4ccccc4)C(=O)N[C@@H](CCSC)C(=O)N[C@@H](CCCNC(=N)N)C(=O)N[C@@H](CCCCN)C(=O)N2)NC(=O)[C@H](CSSC[C@@H](C(=O)N[C@@H](CCCCN)C(=O)N[C@@H](Cc2ccc(O)cc2)C(=O)N[C@H](C(=O)N[C@@H](Cc2ccccc2)C(N)=O)C(C)C)NC(=O)[C@H](Cc2c[nH]c4ccccc24)NC(=O)[C@H](CCCCN)NC(=O)[C@H](Cc2c[nH]cn2)NC(=O)[C@H]([C@@H](C)O)NC(=O)[C@H](CCCNC(=N)N)NC(=O)[C@H](CO)NC3=O)NC(=O)[C@H](CCCCN)NC(=O)[C@H](CC(=O)O)NC(=O)[C@H](CC(N)=O)NC(=O)[C@H](CC(=O)O)NC(=O)[C@@H]2CCCN2C1=O [compound 325] (H-DCLGFMRKCIPDNDKCCRPNLNCSRTHKWCKYVF-NH2; disulfide 2-17, 9-23, 16-30) | – | 0.09 µM | 0.24 µM | 8.07 µM
CC[C@H](C)[C@@H]1NC(=O)[C@@H]2CSSC[C@@H]3NC(=O)[C@H](Cc4c[nH]cn4)NC(=O)[C@H](CC(C)C)NC(=O)[C@H](CC(N)=O)NC(=O)[C@@H]4CCCN4C(=O)[C@H](CCCNC(=N)N)NC(=O)[C@H](CSSC[C@H](NC(=O)[C@@H](N)CC(=O)O)C(=O)N[C@@H](CC(C)C)C(=O)NCC(=O)N[C@@H](Cc4ccccc4)C(=O)N[C@@H](CCSC)C(=O)N[C@@H](CCCNC(=N)N)C(=O)N[C@@H](CCCCN)C(=O)N2)NC(=O)[C@H](CSSC[C@@H](C(=O)N[C@@H](CCCCN)C(=O)N[C@@H](Cc2ccc(O)cc2)C(=O)N[C@H](C(=O)N[C@@H](Cc2ccccc2)C(N)=O)C(C)C)NC(=O)[C@H](Cc2c[nH]c4ccccc24)NC(=O)[C@H](CCCCN)NC(=O)[C@H](Cc2c[nH]cn2)NC(=O)[C@H]([C@@H](C)O)NC(=O)[C@H](CCCNC(=N)N)NC(=O)[C@H](CO)NC3=O)NC(=O)[C@H](CCCCN)NC(=O)[C@H](CC(=O)O)NC(=O)[C@H](CC(N)=O)NC(=O)[C@H](CC(=O)O)NC(=O)[C@@H]2CCCN2C1=O [compound 326] (H-DCLGFMRKCIPDNDKCCRPNLHCSRTHKWCKYVF-NH2; disulfide 2-17, 9-23, 16-30) | – | 0.1 µM | 0.41 µM | 15.6 µM
